Experimental data reported in patent US8952024B2, “Herbicidal pyrimidone derivatives” (E I du Pont de Nemours and Company, priority 2009, dated 2015).

Key:
Type in all cases: in vivo
[1] = system: winter barley (Hordeum vulgare); assay: Test B postemergence plant response; conditions: for Barley plant response rating (0 to 100 scale): 62 g ai/ha, 0 is no effect, 13 to 15 days
In short: (§1)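 Visual ratings from 0 (no effect) to 100 (complete control), made against controls 13–15 days after treatment, kept in a greenhouse. Compounds were applied postemergence to potted plants at the 1- to 4-leaf stage (2–18 cm).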

[2] = system: windgrass (Apera spica-venti); assay: Test B postemergence plant response; conditions: for Windgrass plant response rating (0 to 100 scale): 62 g ai/ha, 0 is no effect, 13 to 15 days
In short: as §1

[3] = system: chickweed (Stellaria media); assay: Test B postemergence plant response; conditions: for Chickweed plant response rating (0 to 100 scale): 62 g ai/ha, 0 is no effect, 13 to 15 days
In short: as §1

[4] = system: canarygrass (Phalaris minor); assay: Test B postemergence plant response; conditions: for Canarygrass plant response rating (0 to 100 scale): 62 g ai/ha, 0 is no effect, 13 to 15 days
In short: as §1

corn (Zea mays) = assay: Test A pre-/postemergence plant response
In short: (§2)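 Pre: directed soil spray on seeded loam/sand blend. Post: same formulation (non-phytotoxic solvent + surfactant) on 2–10 cm plants, 1–2 leaf stage. Greenhouse ~10 d; visual injury score 0–100 vs untreated.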

[5] = system: giant foxtail (Setaria faberii); assay: Test A pre-/postemergence plant response
In short: as §2

[6] = system: pigweed (Amaranthus retroflexus); assay: Test A pre-/postemergence plant response
In short: as §2

[7] = system: barnyardgrass (Echinochloa crus-galli); assay: Test A pre-/postemergence plant response
In short: as §2

[8] = system: morningglory (Ipomoea spp.); assay: Test A pre-/postemergence plant response
In short: as §2

[9] = system: velvetleaf (Abutilon theophrasti); assay: Test A pre-/postemergence plant response
In short: as §2

[10] = system: large crabgrass (Digitaria sanguinalis); assay: Test A pre-/postemergence plant response
In short: as §2

[11] = system: wheat (Triticum aestivum); assay: Test A pre-/postemergence plant response
In short: as §2

[12] = 31 g ai/ha, postemergence, scale 0 to 100, 0 is no effect, 100 is complete control
[13] = postemergence, 100 is complete control
[14] = Postemergence, 125 g ai/ha, visual rating after 13 to 15 days, scale 0 (no effect) to 100 (complete control)
[15] = Postemergence, 250 g ai/ha, scale 0 to 100 (0 no effect, 100 complete control)
[16] = Postemergence, 125 g ai/ha, 0 to 100 scale where 0 is no effect and 100 is complete control
[17] = Postemergence, 500 g ai/ha, 0 to 100 scale, 0 = no effect, 100 = complete control, approx. ten days
[18] = Preemergence, 125 g ai/ha, 0 to 100 scale, 0 = no effect, 100 = complete control
[19] = Preemergence, 500 g ai/ha, visual injury, 0 to 100 scale (0 no effect, 100 complete control), approx. ten days

CCCc1ncc(C(=O)C2=C(O)CCCC2=O)c(=O)n1CC1CCCO1 (centres unmarked) [Compound 74]
Plant response rating, Barley [1, 12]: 0
Barley plant response rating (0 to 100 scale) [1, 13]: 0
Plant response rating, Barley [1, 14]: 0
Plant response rating, Barley [1, 15]: 0
Plant response rating, Windgrass [2, 12]: 5
Windgrass plant response rating (0 to 100 scale) [2, 13]: 60
Plant response rating, Windgrass [2, 14]: 80
Plant response rating, Windgrass [2, 15]: 95
Plant response rating, Chickweed [3, 12]: 75
Chickweed plant response rating (0 to 100 scale) [3, 13]: 85
Plant response rating, Chickweed [3, 14]: 95
Plant response rating, Chickweed [3, 15]: 100
Plant response rating, Canarygrass [4, 12]: 0
Canarygrass plant response rating (0 to 100 scale) [4, 13]: 0
Plant response rating, Canarygrass [4, 14]: 0
Plant response rating, Canarygrass [4, 15]: 0
Plant response rating, Corn (corn (Zea mays); [16]): 0
Plant response rating, Corn (corn (Zea mays); [17]): 20
Plant response rating, Corn (corn (Zea mays); [18]): 0
Plant response rating, Corn (corn (Zea mays); [19]): 0
Plant response rating, Foxtail, Giant [5, 16]: 40
Plant response rating, Foxtail, Giant [5, 17]: 80
Plant response rating, Foxtail, Giant [5, 18]: 0
Plant response rating, Foxtail, Giant [5, 19]: 40
Plant response rating, Pigweed [6, 16]: 100
Plant response rating, Pigweed [6, 17]: 100
Plant response rating, Pigweed [6, 18]: 90
Plant response rating, Pigweed [6, 19]: 100
Plant response rating, Barnyardgrass [7, 16]: 80
Plant response rating, Barnyardgrass [7, 17]: 90
Plant response rating, Barnyardgrass [7, 18]: 30
Plant response rating, Barnyardgrass [7, 19]: 60
Plant response rating, Morningglory [8, 16]: 90
Plant response rating, Morningglory [8, 17]: 100
Plant response rating, Morningglory [8, 18]: 40
Plant response rating, Morningglory [8, 19]: 60
Plant response rating, Velvetleaf [9, 16]: 90
Plant response rating, Velvetleaf [9, 17]: 100
Plant response rating, Velvetleaf [9, 18]: 70
Plant response rating, Velvetleaf [9, 19]: 90
Plant response rating, Crabgrass, Large [10, 16]: 90
Plant response rating, Crabgrass, Large [10, 17]: 90
Plant response rating, Crabgrass, Large [10, 18]: 70
Plant response rating, Crabgrass, Large [10, 19]: 90
Plant response rating, Wheat [11, 16]: 0
Plant response rating, Wheat [11, 17]: 20
Plant response rating, Wheat [11, 18]: 0
Plant response rating, Wheat [11, 19]: 0

CCCn1c(-c2cccs2)ncc(C(=O)C2=C(O)CCCC2=O)c1=O [Compound 77]
Plant response rating, Barley [1, 12]: 0
Barley plant response rating (0 to 100 scale) [1, 13]: 0
Plant response rating, Barley [1, 14]: 0
Plant response rating, Barley [1, 15]: 0
Plant response rating, Windgrass [2, 12]: 10
Windgrass plant response rating (0 to 100 scale) [2, 13]: 10
Plant response rating, Windgrass [2, 14]: 20
Plant response rating, Windgrass [2, 15]: 25
Plant response rating, Chickweed [3, 12]: 80
Chickweed plant response rating (0 to 100 scale) [3, 13]: 85
Plant response rating, Chickweed [3, 14]: 95
Plant response rating, Chickweed [3, 15]: 98
Plant response rating, Canarygrass [4, 12]: 0
Canarygrass plant response rating (0 to 100 scale) [4, 13]: 0
Plant response rating, Canarygrass [4, 14]: 0
Plant response rating, Canarygrass [4, 15]: 0
Plant response rating, Corn (corn (Zea mays); [16]): 0
Plant response rating, Corn (corn (Zea mays); [17]): 20
Plant response rating, Corn (corn (Zea mays); [18]): 0
Plant response rating, Corn (corn (Zea mays); [19]): 0
Plant response rating, Foxtail, Giant [5, 16]: 50
Plant response rating, Foxtail, Giant [5, 17]: 70
Plant response rating, Foxtail, Giant [5, 18]: 0
Plant response rating, Foxtail, Giant [5, 19]: 20
Plant response rating, Pigweed [6, 16]: 100
Plant response rating, Pigweed [6, 17]: 100
Plant response rating, Pigweed [6, 18]: 80
Plant response rating, Pigweed [6, 19]: 90
Plant response rating, Barnyardgrass [7, 16]: 80
Plant response rating, Barnyardgrass [7, 17]: 90
Plant response rating, Barnyardgrass [7, 18]: 20
Plant response rating, Barnyardgrass [7, 19]: 50
Plant response rating, Morningglory [8, 16]: 90
Plant response rating, Morningglory [8, 17]: 100
Plant response rating, Morningglory [8, 19]: 70
Plant response rating, Velvetleaf [9, 16]: 100
Plant response rating, Velvetleaf [9, 17]: 100
Plant response rating, Velvetleaf [9, 18]: 70
Plant response rating, Velvetleaf [9, 19]: 100
Plant response rating, Crabgrass, Large [10, 16]: 60
Plant response rating, Crabgrass, Large [10, 17]: 80
Plant response rating, Crabgrass, Large [10, 18]: 50
Plant response rating, Crabgrass, Large [10, 19]: 90
Plant response rating, Wheat [11, 16]: 0
Plant response rating, Wheat [11, 17]: 0
Plant response rating, Wheat [11, 18]: 0
Plant response rating, Wheat [11, 19]: 0
